PMC7173930, “EAT-18 is an essential auxiliary protein interacting with the non-alpha nAChR subunit EAT-2 to form a functional receptor” (PLoS Pathogens, 2020)
Like-named read-outs stand apart in the source and are kept apart here.

Assays:
[1] = system: nAChRs expressed in the pharynx of A. suum; experiment: tissue or blood; type: cell-based; conditions: for normalized response (δG) to muscarinic agonists, control ACh = 100%: 100 μM, 10 s application, n=4; for Emax: read-out: % change in membrane conductance (δG) normalized to the ACh δG
Method: A. suum pharyngeal dissections and electrophysiology recordings were adapted from Martin [49]. Briefly, pharynx was dissected out from the head region of the worm and mounted on Sylgard (Sigma-Aldrich Inc., USA)—lined in a double jacketed bath chamber maintained at 28°C. The muscle layer surrounding the anterior 3rd of the pharynx was preserved for anchoring. The intestine attached to the posterior end of the pharynx was used for stretching and pinning down. The preparation was continuously perfused with calcium-free Ascaris Perienteric Fluid-Ringer (calcium-free APF-Ringer) composition (mM): NaCl 23, Na-acetate 110, KCl 24, MgCl2 11, glucose 11, and HEPES 5; NaOH or acetic acid was added to adjust the pH to 7.6. […] The rate of localized perfusion was 3.5–4 ml min^−1 through a 20-gauge needle, which was placed directly above the recording region of the pharynx. […] We used 3 M potassium acetate in our micropipettes to get the final resistances of 4–7 MΩ for the voltage sensing and 0.5–1 MΩ for the current injecting electrode for current-clamp recordings. The current-injecting electrode injected hyperpolarizing step currents of −1000 nA for 500 ms at 0.3 Hz.
We constructed the sigmoidal concentration-response plots by fitting the data by nonlinear regression to determine the pEC50 and the maximal response (Rmax). Extra sum of squares F-test was used to test statistical differences between pEC50, slope, and maximal response. The significance levels were set to P<0.05.
In applications containing arecoline and pilocarpine, we used mecamylamine, a nAChR antagonist (30µM) to inhibit nAChRs and to allow only mAChR activation.

[2] = system: A. suum muscarinic receptor; parameters: method as in earlier work; conditions: all used at 100 µM; ref 1 Kimber M.J. et al. Int J Parasitol 39: 1215-1222 (2009); cited from earlier work
[3] = target: T1, Cel-EAT-2 and Cel-EAT-18c nAChR (Caenorhabditis elegans, UniProt Q9U298); experiment: Two-electrode voltage-clamp of Cel-EAT-2 + Cel-EAT-18c nAChR expressed in Xenopus oocytes; type: cell-based; conditions: for Emax at 100 µM: read-out: current response normalized to the control 100 μM ACh current (Imax)
T1 sequence (Q9U298 22-474): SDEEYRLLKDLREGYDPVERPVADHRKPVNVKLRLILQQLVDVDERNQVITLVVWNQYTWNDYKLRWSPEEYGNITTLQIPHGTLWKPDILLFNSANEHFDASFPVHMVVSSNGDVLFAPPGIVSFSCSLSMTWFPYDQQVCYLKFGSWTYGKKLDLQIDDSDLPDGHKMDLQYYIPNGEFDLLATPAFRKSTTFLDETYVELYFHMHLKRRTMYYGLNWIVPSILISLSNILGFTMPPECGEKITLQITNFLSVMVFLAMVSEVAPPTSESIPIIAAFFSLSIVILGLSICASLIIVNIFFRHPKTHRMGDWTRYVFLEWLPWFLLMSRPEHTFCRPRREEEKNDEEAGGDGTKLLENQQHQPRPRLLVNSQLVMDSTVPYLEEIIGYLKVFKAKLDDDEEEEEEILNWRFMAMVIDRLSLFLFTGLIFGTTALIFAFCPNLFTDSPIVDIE

[4] = target: T2, Cel-EAT-2 and Cel-EAT-18c receptor (Cel-EAT-2 nAChR) (Caenorhabditis elegans, UniProt Q9U298); experiment: Two-electrode voltage-clamp of oocytes expressing Cel-EAT-2 with Cel-EAT-18c; agonist peak currents normalized to 100 uM ACh and fitted to the Hill equation.; type: cell-based, Xenopus laevis oocytes; conditions: n = 6; read-out: pEC50 (mean±SEM) (converted)
T2 construct: homomeric EAT-2 co-expressed with Cel-EAT-18c in Xenopus laevis oocytes
T2 sequence (Q86DB4 entry or part of it, one chain of several): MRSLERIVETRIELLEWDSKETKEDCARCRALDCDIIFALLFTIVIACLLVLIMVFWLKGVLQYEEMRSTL
Method: Oocyte injections and two-electrode electrophysiology recordings were performed as previously described [48].
GraphPad Prism 8.0 software (GraphPad Software Inc., USA) was used to analyze the data. […] We used One-way analysis of variance (ANOVA) and Extra sum of squares F-test to test statistical differences (statistically different if p<0.05). Tukeys’ multiple comparison was used as a post-hoc test.

Asu-EAT-2 nAChR = Asu-EAT-2 nAChR (Ascaris suum, UniProt F1L9Y6); experiment: cell-based; type: cell-based, A. suum; conditions: for Emax: read-out: current response normalized to the control 100 μM ACh current
Chain of Asu-EAT-2 nAChR (F1L9Y6 entry or part of it): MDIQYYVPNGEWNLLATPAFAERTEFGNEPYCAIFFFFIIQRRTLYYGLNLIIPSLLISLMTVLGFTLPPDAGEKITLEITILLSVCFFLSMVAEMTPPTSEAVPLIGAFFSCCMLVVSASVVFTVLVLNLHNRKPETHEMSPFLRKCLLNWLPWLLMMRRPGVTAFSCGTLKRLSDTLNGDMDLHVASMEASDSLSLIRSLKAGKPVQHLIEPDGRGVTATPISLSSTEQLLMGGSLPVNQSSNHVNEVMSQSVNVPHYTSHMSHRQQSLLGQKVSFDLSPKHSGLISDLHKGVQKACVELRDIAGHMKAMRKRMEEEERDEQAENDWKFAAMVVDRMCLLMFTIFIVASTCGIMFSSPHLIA
Chain of Asu-EAT-2 nAChR (F1L1D9 entry or part of it, further chain): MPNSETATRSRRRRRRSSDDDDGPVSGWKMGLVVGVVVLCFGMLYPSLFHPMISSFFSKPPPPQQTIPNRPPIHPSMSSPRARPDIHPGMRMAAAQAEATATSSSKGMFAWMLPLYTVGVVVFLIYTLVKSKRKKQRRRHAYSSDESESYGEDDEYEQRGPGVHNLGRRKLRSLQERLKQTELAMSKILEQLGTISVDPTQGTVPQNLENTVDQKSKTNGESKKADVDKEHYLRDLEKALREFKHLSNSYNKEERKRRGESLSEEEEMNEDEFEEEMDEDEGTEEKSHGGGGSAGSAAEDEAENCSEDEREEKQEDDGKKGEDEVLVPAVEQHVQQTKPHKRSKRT

[5] = target: T3, Cel-EAT-2 + Asu-EAT-18 + Asu-RIC-3 (Caenorhabditis elegans, UniProt Q9U298)
[6] = target: T3, Cel-EAT-2 + Asu-EAT-18 + Asu-RIC-3; experiment: cell-based
[7] = system: α3β4, α3β2, α4β4 and α4β2 vertebrate nAChRs; conditions: read-out: IC50 of reversible channel block; cited from earlier work
[8] = in the presence of mecamylamine 30 μM, mean±SE
[9] = agonist concentration-response, mean±SEM

O=C1CCCN1CC#CCN1CCCC1 [oxotremorine]
normalized response (δG) to muscarinic agonists, control ACh = 100% ([1]; mean±SE): 1.8±0.8% | response relative to ACh (rank order series of muscarinic agonists) [2]: 61%

COC(=O)C1=CCCN(C)C1 [arecoline]
normalized response (δG) to muscarinic agonists, control ACh = 100% [1, 8]: 2.6±2.0% | response relative to ACh (rank order series of muscarinic agonists) [2]: 76%

CCCC(=O)OCC[N+](C)(C)C [butyrylcholine]
current response normalized to the control 100 μM ACh current (Imax) ([3]; agonist 100 μM, mean±SEM, n≥6): 50.0±5.0% | pEC50 ([3]; agonist concentration-response, 100 μM ACh as internal standard, mean±SEM): 3.9±0.1 | Hill slope (nH) [3, 9]: 2.8±1.8 | EC50 [4]: 126 µM

CN1CCC[C@H]1c1cccnc1 [nicotine]
EC50 [3]: 63.1 µM | Hill slope (nH) [3]: 2.4±0.4 | Imax [3]: 54.6 ± 2.6% | current response normalized to the control 100 μM ACh current (Imax) [3]: 55 ± 8.0% | Emax at 100 µM [3]: 55 ± 8% | Hill slope (nH) [1]: 1.7±0.6 | maximal response [1]: 79.3 ± 4.3 μS | Emax ([1]; Ascaris suum): 92 ± 6.2% | EC50 ([1]; Ascaris suum, read-out: pEC50 (converted)): 10 µM | Emax (Asu-EAT-2 nAChR): 105 ± 5.7% | Imax [5]: 96.5 ± 2.3% | EC50 [6]: 18.7 µM

c1ccc([C@H]2CN3CCSC3=N2)cc1 [levamisole]
Emax at 100 µM ([3]; agonist 100 μM, mean±SEM, n≥6): 0% | Emax ([1]; Ascaris suum): 1.8 ± 0.61% | current response normalized to the control 100 μM ACh current (Asu-EAT-2 nAChR): failed to activate the receptor | Emax (Asu-EAT-2 nAChR): 0%

C[N+](C)(C)CCOC(N)=O [carbachol]
Hill slope (nH) [3, 9]: 2.1±0.3 | Emax at 100 µM ([3]; agonist 100 μM, mean±SEM, n≥6): 37 ± 3.4% | EC50 ([3]; read-out: pEC50 (converted)): 398 µM | response relative to ACh (rank order series of muscarinic agonists) [2]: 80%

C[N+](C)(CCOc1ccccc1)Cc1ccccc1 [bephenium]
current response normalized to the control 100 μM ACh current (Imax) ([3]; agonist 100 μM, mean±SEM, n≥6): did not activate the receptor | Emax at 100 µM ([3]; agonist 100 μM, mean±SEM, n≥6): 0% | Emax ([1]; Ascaris suum): 7.2 ± 3.5% | current response normalized to the control 100 μM ACh current (Asu-EAT-2 nAChR; mean±SEM, n≥5): failed to activate the receptor | Emax (Asu-EAT-2 nAChR; mean±SEM, n≥5): 0.1 ± 0.1%

CO[C@H]1CC=C2CCN3CCC4=C(CC(=O)OC4)[C@]23C1 [DHβE, Dihydro-β-erythroidine]
effect on sensitivity and efficacy of the receptor for ACh [3]: not altered | Imax of ACh concentration-response in the presence of antagonist ([3]; antagonist 30 μM): 91.1±4.1% | % inhibition of 100 μM ACh membrane conductance (δG) [1]: 17.9±5.0% | maximal response (δG) of ACh in the presence of antagonist ([1]; DHβE 30 μM, mean±SE): 89.7±3.0 μS | mean % inhibition of ACh (100 μM) mediated currents (Asu-EAT-2 nAChR): 66±8.4%

Clc1ccc(C2CC3CCC2N3)cn1 (stereo not drawn) [epibatidine]
Emax at 100 µM ([3]; agonist 100 μM, mean±SEM, n≥6): 25 ± 1.5% | % change in membrane conductance (δG) normalized to the ACh δG ([1]; normalized to 100 μM ACh (10 s), mean±SEM, n≥4): 31.0±3.0% | Emax (Asu-EAT-2 nAChR; mean±SEM, n≥5): 77 ± 4.2%

CN1[C@@H]2CC[C@H]1C[C@@H](OC(=O)C(CO)c1ccccc1)C2 (stereo partly drawn) [atropine]
IC50 [7]: 4 to 10 µM

Cc1ccsc1/C=C/C1=NCCCN1C [morantel]
current response normalized to the control 100 μM ACh current (Imax) ([3]; agonist 100 μM, mean±SEM, n≥6): did not activate the receptor | Emax ([1]; Ascaris suum): 0.3 ± 0.3% | Emax (Asu-EAT-2 nAChR; mean±SEM, n≥5): 0%

CC[C@@H]1C(=O)OC[C@@H]1Cc1cncn1C [pilocarpine]
normalized response (δG) to muscarinic agonists, control ACh = 100% [1, 8]: 0.7±0.7% | response relative to ACh (rank order series of muscarinic agonists) [2]: 14%

CC(C[N+](C)(C)C)OC(N)=O (stereo not drawn) [bethanechol]
response relative to ACh (rank order series of muscarinic agonists) [2]: 58%
